Each structure is given as a SMILES string. “And” between values parts separate entries of the source, which are not always exact repeats. Equal values may be shown once.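 Tested at 5 concentrations; 48 h exposure; 96-well plates; endpoints linearly interpolated, else capped at highest concentration. GI50: concentration for 50% inhibition of growth. TGI denotes the concentration required for complete inhibition of growth.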

Some test systems named below: 786-0 renal; CAKI-1 renal; COLO 205 colon; HOP-92 NSCLC; HS 578T breast; MOLT-4 leukemia; SF-268 CNS; SK-MEL-2 melanoma; SK-OV-3 ovarian; T-47D breast.
Experiment in all cases: inhibition of tumour cell growth, NCI panel, 48 h

For `CCOC(=O)c1[nH]c2cc(Cl)ccc2c1[C@@H](C(=O)NC(C)(C)C)N(CC)C(=O)CCCCC#Cc1cccc2c1CN(C1CCC(=O)NC1=O)C2=O` (stereo partly drawn), the GI50 is 0.249 µM in the assay on 786-0 renal; 0.0355 µM in the assay on CAKI-1 renal; 0.0308 µM in the assay on COLO 205 colon; under 0.01 µM with HOP-92 NSCLC; under 0.01 µM with HS 578T breast; under 0.01 µM in the assay with MOLT-4 leukemia. Also, the GI50 in the assay on SF-268 CNS is 0.0476 µM; with SK-MEL-2 melanoma, 1.47 µM; in the assay with SK-OV-3 ovarian, 0.694 µM; in the assay with T-47D breast, under 0.01 µM. For the same compound, the TGI with 786-0 renal was 8.63 µM; in the assay with CAKI-1 renal, 8.62 µM; in the assay with COLO 205 colon, 2.53 µM; in the assay on HOP-92 NSCLC, under 0.0238 µM; in the assay on HS 578T breast, 6.66 µM; in the assay on MOLT-4 leukemia it was 0.0152 µM. Besides, the TGI in the assay with SF-268 CNS came to 28.7 µM; with SK-MEL-2 melanoma it was 4.15 µM; with SK-OV-3 ovarian it was 16.9 µM; with T-47D breast, 7.59 µM.
As to `O=C1C2CCN(CC2)C1CN1CCOCC1` (stereo not drawn), the TGI amounted to 3.55 µM in the assay with 786-0 renal; 4.09 µM in the assay on CAKI-1 renal; 3.27 µM with COLO 205 colon; 3.47 µM in the assay with HOP-92 NSCLC; 82.1 µM in the assay on HS 578T breast; 13.8 µM with MOLT-4 leukemia. Further, the TGI in the assay with SF-268 CNS is 34.3 µM; in the assay on SK-MEL-2 melanoma, 32.5 µM; with SK-OV-3 ovarian, 31.7 µM; in the assay with T-47D breast, 3.93 µM.
Take `OC1CC2CCC(C1)N2CCCN1c2ccccc2Sc2ccc(Cl)cc21` (stereo not drawn): the TGI in the assay on 786-0 renal was determined as 3.54 µM; in the assay with CAKI-1 renal, 9.47 µM; with COLO 205 colon, 3.35 µM; with HOP-92 NSCLC, 9.39 µM; in the assay with HS 578T breast, 4.59 µM; with MOLT-4 leukemia it was 5.8 µM. In addition, the TGI in the assay with SF-268 CNS turned out to be 6.23 µM; in the assay on SK-MEL-2 melanoma it was 3.29 µM; in the assay with SK-OV-3 ovarian, 11.6 µM; in the assay with T-47D breast, 5.44 µM.
`CN(C)CCNc1ccc2ncn3c4ccc(O)cc4c(=O)c1c23`: the TGI in the assay on 786-0 renal stood at 13.3 µM; in the assay with CAKI-1 renal, 4.83 µM; in the assay on COLO 205 colon, 9.32 µM; in the assay on HOP-92 NSCLC it was 13.8 µM; with HS 578T breast it was 8.19 µM; in the assay on MOLT-4 leukemia, 10.5 µM. Further, the TGI with SF-268 CNS turned out to be 10.7 µM; in the assay with SK-MEL-2 melanoma, 13 µM; in the assay with SK-OV-3 ovarian it was 17 µM; in the assay with T-47D breast, 25 µM.
Consider `COc1ccc(Br)cc1NC(=O)Nc1cccc2c1ccn2Cc1ccnc(N)c1`, for which the GI50 in the assay on 786-0 renal was 8.57 µM and 8.88 µM; with CAKI-1 renal, 4.79 µM and 8.78 µM; with COLO 205 colon, 6.48 µM and 4.48 µM; in the assay with HOP-92 NSCLC, 2.18 µM and 1.96 µM; in the assay on HS 578T breast, 1.84 µM and 3.81 µM; in the assay with MOLT-4 leukemia it was 3.06 µM and 3.14 µM. Besides, the GI50 in the assay with SF-268 CNS was 6.16 µM and > 10 µM; in the assay with SK-MEL-2 melanoma it was 2.78 µM and 3.82 µM; in the assay on SK-OV-3 ovarian it was 8.38 µM and > 10 µM; in the assay on T-47D breast, 3.3 µM and 3.9 µM. In addition, the TGI in the assay on 786-0 renal was 27.5 µM and > 10 µM; in the assay with CAKI-1 renal it was 21.5 µM and > 10 µM; in the assay with COLO 205 colon it was 18.2 µM and > 10 µM; in the assay with HOP-92 NSCLC it was 7.9 µM and 8.55 µM; in the assay with HS 578T breast, 16.2 µM and > 10 µM; in the assay with MOLT-4 leukemia, 18.9 µM and > 10 µM. Moreover, the TGI in the assay on SF-268 CNS is 32.5 µM and > 10 µM; with SK-MEL-2 melanoma, 8.87 µM and > 10 µM; in the assay with SK-OV-3 ovarian, 26.3 µM and > 10 µM; in the assay with T-47D breast, 18.4 µM and > 10 µM.
Turning to `Cc1ccc(OCC2CO2)c(Br)c1` (stereo not drawn), the TGI with 786-0 renal is 62 µM; in the assay on CAKI-1 renal, over 100 µM; with COLO 205 colon, 32.3 µM; with HOP-92 NSCLC, 36.5 µM; in the assay on HS 578T breast, over 100 µM; in the assay with MOLT-4 leukemia, 70.4 µM. In addition, the results for the TGI with SF-268 CNS, with SK-OV-3 ovarian and in the assay on T-47D breast were 42.6 µM, 58.5 µM and over 100 µM, respectively.
`C=C(C)[C@@H]1CC[C@]2(CO)CC[C@]3(C)[C@H](CC[C@@H]4[C@@]5(C)CCCNC(C)(C)[C@@H]5CC[C@]43C)[C@@H]12`: the GI50 is 1.62 µM with 786-0 renal; 1.55 µM with CAKI-1 renal; 1.54 µM in the assay on COLO 205 colon; 1.73 µM with HOP-92 NSCLC; 1.99 µM in the assay with HS 578T breast; 1.79 µM with MOLT-4 leukemia. Besides, the GI50 in the assay on SF-268 CNS is 1.74 µM; in the assay with SK-OV-3 ovarian, 1.83 µM; in the assay with T-47D breast, 1.73 µM. The TGI with 786-0 renal was determined as 3.16 µM; with CAKI-1 renal, 2.89 µM; in the assay with COLO 205 colon, 3.24 µM; in the assay on HOP-92 NSCLC it was 3.33 µM; in the assay with HS 578T breast it was 4.79 µM; in the assay with MOLT-4 leukemia, 4.5 µM. In addition, the TGI worked out at 3.54 µM in the assay with SF-268 CNS, 3.49 µM in the assay on SK-OV-3 ovarian and 3.71 µM with T-47D breast.
For `C[C@@H]1C[C@H](N)C[C@H](c2ccncc2NC(=O)c2ccc(F)c(-c3c(F)cccc3F)n2)C1`, the GI50 in the assay on 786-0 renal was 12.2 µM and > 10 µM; in the assay on CAKI-1 renal, 7.51 µM; in the assay with COLO 205 colon it was 4.38 µM and 3.84 µM; in the assay with HS 578T breast, 13.4 µM and > 10 µM; in the assay with MOLT-4 leukemia, 4.91 µM and 5.14 µM; in the assay with SF-268 CNS, 10.8 µM and > 10 µM. Moreover, the GI50 with SK-MEL-2 melanoma was 17.1 µM and > 10 µM; with SK-OV-3 ovarian, 12.7 µM and > 10 µM; in the assay with T-47D breast, 10.5 µM and 8.5 µM. The TGI with 786-0 renal is 25.6 µM and > 10 µM; in the assay with CAKI-1 renal it was over 10 µM; in the assay with COLO 205 colon, 22.1 µM and > 10 µM; with HS 578T breast, 49 µM and > 10 µM; with MOLT-4 leukemia it was 20.6 µM and > 10 µM; in the assay on SF-268 CNS it was 25.3 µM and > 10 µM. For the same compound, the TGI in the assay on SK-MEL-2 melanoma is 34.8 µM and > 10 µM; with SK-OV-3 ovarian it was 26.8 µM and > 10 µM; in the assay with T-47D breast, 28.5 µM and > 10 µM.
Regarding `CC(C)(C)OC(=O)C1C(=O)NC(=O)CC1CC(OCc1ccccc1)C(OCc1ccccc1)C(COCc1ccccc1)OCc1ccccc1` (stereo not drawn), the GI50 was 47.6 µM and 12.3 µM in the assay with 786-0 renal; 14.1 µM and 3.86 µM in the assay on MOLT-4 leukemia; 46.8 µM and 16.1 µM with SF-268 CNS. The TGI is over 100 µM in the assay on 786-0 renal; > 100 µM and 68.1 µM in the assay on HOP-92 NSCLC; over 100 µM in the assay with HS 578T breast; > 100 µM and 28.1 µM with MOLT-4 leukemia; over 100 µM with SF-268 CNS; 81 µM with T-47D breast.
Turning to `COc1ccc(NC(=O)Oc2ccc3c(C)cc(=O)oc3c2)c(OC)c1` (tested in a mixture with another compound), the TGI in the assay with 786-0 renal, in the assay on CAKI-1 renal, in the assay on COLO 205 colon, in the assay on HS 578T breast, in the assay on MOLT-4 leukemia and in the assay on SF-268 CNS was over 100 µM throughout. The TGI with SK-MEL-2 melanoma, in the assay on SK-OV-3 ovarian and with T-47D breast was over 100 µM in each case.

Source of the values: PubChem BioAssay (NCI).
